Data set [1] has as its system CAL-62. Description: Antiproliferative activity against human CAL-62 cells harboring KRAS G12R mutant assessed as inhibition of cell proliferation incubated for 7 days by CellTiterGlo-3D proliferation assay. Particulars: time 7.0 day. The format is functional, cell-based.
Data set [2] deals with von Hippel-Lindau disease tumor suppressor/Son of sevenless homolog 1/Elongin-B/Elongin-C (Homo sapiens) (UniProt Q07889+P40337+Q15370+Q15369). As to the kind of experiment: Binding affinity to GST tagged human SOS1(564 to 1049 residues)-6his tagged human VHL (54 to 213 residues)-human ElonginC (17 to 112 residues)-human ElonginB (1 to 104 residues) expressed in Escherichia coli BL21 (DE3) cells assessed as ternary complex formation by measuring maximal HTRF signals incubated for 15 mins by HTRF analysis.

In data set [3] the target is T1, von Hippel-Lindau disease tumor suppressor/Son of sevenless homolog 1 (Homo sapiens) (UniProt Q07889+P40337). Description: PROTAC activity at VHL/SOS1 in human NCI-H358 cells harboring KRAS G12C mutant with shRNA lentivirus mediated VHL knockdown assessed as induction of SOS1 degradation at 1 uM incubated for 24 hrs by Immunoblot analysis. The format is cell-based.

For data set [4], the target named is von Hippel-Lindau disease tumor suppressor/Son of sevenless homolog 1 (Homo sapiens, UniProt P40337+Q07889, Q61H). Description: PROTAC activity at VHL/SOS1 in human NCI-H460 cells harboring KRAS Q61H mutant assessed as induction of SOS1 degradation incubated for 24 hrs by Immunoblot analysis. The class given is cell-based.
Data set [5] deals with T1, von Hippel-Lindau disease tumor suppressor/Son of sevenless homolog 1 (Homo sapiens). Description: PROTAC activity at VHL/SOS1 in human UMUC3 cells harboring KRAS G12C mutant assessed as induction of SOS1 degradation by measuring maximal efficacy at 1 to 2000 nM incubated for 24 hrs by Immunoblot analysis relative to control. The class given is cell-based. Particulars: dose 1-2000 nM.

Data set [6] deals with MIA PaCa-2. Description: Antiproliferative activity against human MIA PaCa-2 cells harboring KRAS G12C mutant assessed as inhibition of cell proliferation incubated for 7 days by CellTiterGlo-3D proliferation assay. The format is functional, cell-based. Particulars: MIA PaCa-2, 168 h.
For data set [7], the system named is NCI-H358. As to the kind of experiment: Antiproliferative activity against human NCI-H358 cells harboring KRAS G12C mutant assessed as inhibition of cell proliferation incubated for 7 days by CellTiterGlo-3D proliferation assay. The class given is functional, cell-based. Conditions: NCI-H358, 168 h.
Data set [8] deals with NCI-H460. Description: Antiproliferative activity against human NCI-H460 cells harboring KRAS […] mutant assessed as inhibition of cell proliferation incubated for 7 days by CellTiterGlo-3D proliferation assay. The class given is functional, cell-based. Particulars: time 7.0 day.
Data set [9] has as its target T1, von Hippel-Lindau disease tumor suppressor/Son of sevenless homolog 1 (Homo sapiens). As to the kind of experiment: PROTAC activity at VHL/SOS1 in human ASPC1 cells harboring KRAS G12D mutant assessed as induction of SOS1 degradation at 1 uM incubated for 2 to 4 hrs by Immunoblot analysis. The format is cell-based. Conditions: time 2-4 hrs.
Data set [10] has as its target T2, Son of sevenless homolog 1 (Homo sapiens) (UniProt Q07889).
T2 sequence (whole entry): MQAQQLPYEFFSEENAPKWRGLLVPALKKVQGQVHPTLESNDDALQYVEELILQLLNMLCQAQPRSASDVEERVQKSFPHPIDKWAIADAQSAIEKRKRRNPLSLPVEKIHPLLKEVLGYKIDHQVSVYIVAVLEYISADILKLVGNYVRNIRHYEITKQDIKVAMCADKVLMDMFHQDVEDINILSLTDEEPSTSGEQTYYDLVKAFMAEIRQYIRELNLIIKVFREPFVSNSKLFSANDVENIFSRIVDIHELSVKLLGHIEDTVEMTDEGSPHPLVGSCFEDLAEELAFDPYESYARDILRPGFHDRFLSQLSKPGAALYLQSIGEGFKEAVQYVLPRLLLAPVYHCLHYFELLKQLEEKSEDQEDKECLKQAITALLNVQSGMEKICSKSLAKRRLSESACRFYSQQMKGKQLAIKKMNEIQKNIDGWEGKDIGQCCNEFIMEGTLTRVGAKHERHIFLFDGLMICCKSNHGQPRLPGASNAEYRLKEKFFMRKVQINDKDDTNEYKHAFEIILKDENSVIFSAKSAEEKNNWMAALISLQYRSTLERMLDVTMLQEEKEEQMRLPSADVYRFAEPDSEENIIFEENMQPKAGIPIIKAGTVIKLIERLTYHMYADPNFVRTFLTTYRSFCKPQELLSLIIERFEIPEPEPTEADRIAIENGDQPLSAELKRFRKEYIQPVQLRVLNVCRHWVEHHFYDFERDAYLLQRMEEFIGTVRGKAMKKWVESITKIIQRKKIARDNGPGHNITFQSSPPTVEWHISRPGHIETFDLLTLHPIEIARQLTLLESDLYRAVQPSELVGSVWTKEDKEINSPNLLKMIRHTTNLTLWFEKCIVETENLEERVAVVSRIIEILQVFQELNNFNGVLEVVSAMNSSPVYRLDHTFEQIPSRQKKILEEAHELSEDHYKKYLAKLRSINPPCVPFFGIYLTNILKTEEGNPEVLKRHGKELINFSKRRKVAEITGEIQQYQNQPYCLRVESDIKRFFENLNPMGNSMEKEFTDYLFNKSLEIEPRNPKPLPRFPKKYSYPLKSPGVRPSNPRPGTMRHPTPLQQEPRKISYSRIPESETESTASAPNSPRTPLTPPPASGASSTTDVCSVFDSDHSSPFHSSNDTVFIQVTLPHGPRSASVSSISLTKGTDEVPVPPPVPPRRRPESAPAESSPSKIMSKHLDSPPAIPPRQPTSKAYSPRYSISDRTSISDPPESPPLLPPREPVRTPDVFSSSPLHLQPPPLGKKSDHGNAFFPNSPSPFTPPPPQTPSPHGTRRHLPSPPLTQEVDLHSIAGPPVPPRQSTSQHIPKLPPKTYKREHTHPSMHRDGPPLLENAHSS
As to the kind of experiment: Induction of SOS1 degradation in human ASPC1 cells at 1 uM incubated for 6 hrs by quantitative proteomics analysis. The format is cell-based.

The nature of data set [11]: Half-life in BALB/c mouse at 10 mg/kg, ip measured upto 24 hrs by LC-MS/MS analysis. Particulars: in vivo. The class given is ADME, organism-based.
The nature of data set [12]: Acute toxicity in BALB/c mouse assessed as body weight loss at 12.5 to 100 mg/kg, ip administered once daily for 7 days. The class given is organism-based. Conditions: in vivo, 168 h, dose 12.5-100 mg/kg, time 7 day.
Data set [13] deals with ASPC1. Description: Antitumor activity against human ASPC1 cells harboring KRAS G12D mutant xenografted in BALB/c nude mouse assessed as tumor growth inhibition at 20 mg/kg, ip administered once daily for 3 weeks relative to control. Conditions: ASPC1, 504 h, read-out: TGI. The format is functional.
Data set [14] can be described thus: Toxicity in BALB/c nude mouse xenografted with human ASPC1 cells harboring KRAS G12D mutant assessed as body weight loss at 10 to 20 mg/kg, ip administered once daily for 3 weeks. The class given is organism-based. Particulars: in vivo, 504 h, dose 10-20 mg/kg.
In data set [15] the target is T1, von Hippel-Lindau disease tumor suppressor/Son of sevenless homolog 1 (Homo sapiens). Description: In vivo PROTAC activity at VHL/SOS1 in human SW620 cells harboring KRAS G12V mutant xenografted BALB/c nude mouse assessed as induction of SOS1 degradation at 10 to 20 mg/kg, ip administered once daily for 2 weeks by Immunoblot analysis. The class given is functional, organism-based. Particulars: SW-620, dose 10-20 mg/kg.

Active and inactive are the calls of the source. The calls are words filed in the database; no cut-off is given here.

From ChEMBL document CHEMBL5247656, “Discovery of a Potent, Cooperative, and Selective SOS1 PROTAC ZZ151 with In Vivo Antitumor Efficacy in KRAS-Mutant Cancers” (J Med Chem, 2023) come the findings set out here.

As to `COc1cc2nc(C)nc(N[C@H](C)c3cc(N)cc(C(F)(F)F)c3)c2cc1C1CCN(C(=O)CCCCCC(=O)N[C@H](C(=O)N2C[C@H](O)C[C@H]2C(=O)N[C@@H](C)c2ccc(-c3scnc3C)cc2)C(C)(C)C)CC1`, the inhibition entry in data set [1] and in data set [8] was “inactive” each time. Moreover, the result in [2], in data set [9], in data set [10] and in data set [15] was Active. In addition, the outcome in [3] was inactive. The EC50 in data set [4] is 81.7 nM. In addition, the maximal effect (Emax) in data set [5] is more than 95%. The IC50 in [6] was determined as 10.1 nM; in data set [7], 12.9 nM. This compound had a half-life in data set [11] of 9.69 h. The Activity result in [12] and in [14] was “Non-Toxic” throughout. The inhibition in vivo at 20 mg/kg in data set [13] is 70.2%.
